Measurements taken from US20210300943A1, “OGA INHIBITOR COMPOUNDS” (Janssen Pharmaceutica NV, priority 2018, published 2021).

Columns and labels:
[1] = target: T1, recombinant human Meningioma Expressed Antigen 5 (MGEA5), also referred to as O-GlcNAcase (OGA) (Homo sapiens, UniProt O60502); experiment: OGA biochemical assay (inhibition of FM-GlcNAc hydrolysis, fluorescence); settings: for Emax: read-out: Enzymatic Emax (%); for IC50: read-out: Enzymatic hOGA, pIC50 (converted)
T1 construct: Full length OGA enzyme was purchased at OnGene (cat #TP322411); purchased OnGene (so in the source)
T1 sequence (O60502 1-916): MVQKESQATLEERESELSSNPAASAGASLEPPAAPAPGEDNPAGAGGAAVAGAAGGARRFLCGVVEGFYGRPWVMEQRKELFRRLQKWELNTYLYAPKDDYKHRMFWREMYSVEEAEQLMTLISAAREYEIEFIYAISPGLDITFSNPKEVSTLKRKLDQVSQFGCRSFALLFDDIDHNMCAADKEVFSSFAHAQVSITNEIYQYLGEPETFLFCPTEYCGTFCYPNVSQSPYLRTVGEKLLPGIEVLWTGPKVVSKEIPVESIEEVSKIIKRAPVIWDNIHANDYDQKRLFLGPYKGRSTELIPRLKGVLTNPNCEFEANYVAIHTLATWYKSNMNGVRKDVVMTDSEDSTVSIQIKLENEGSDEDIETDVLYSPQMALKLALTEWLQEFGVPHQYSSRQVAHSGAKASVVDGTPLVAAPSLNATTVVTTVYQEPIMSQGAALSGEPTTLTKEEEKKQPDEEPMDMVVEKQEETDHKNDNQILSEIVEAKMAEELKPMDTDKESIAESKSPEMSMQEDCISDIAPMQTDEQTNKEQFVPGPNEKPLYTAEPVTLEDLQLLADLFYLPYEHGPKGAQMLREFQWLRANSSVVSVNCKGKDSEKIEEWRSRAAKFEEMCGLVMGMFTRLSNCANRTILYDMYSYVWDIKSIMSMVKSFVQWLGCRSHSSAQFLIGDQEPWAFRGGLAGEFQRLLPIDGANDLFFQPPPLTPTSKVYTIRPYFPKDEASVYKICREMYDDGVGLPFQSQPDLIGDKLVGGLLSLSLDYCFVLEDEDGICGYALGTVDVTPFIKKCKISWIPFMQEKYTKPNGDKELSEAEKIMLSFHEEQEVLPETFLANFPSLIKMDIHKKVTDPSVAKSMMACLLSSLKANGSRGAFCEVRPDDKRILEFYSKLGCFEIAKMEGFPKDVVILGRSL
Method in brief: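 Full-length recombinant OGA (2 nM) pre-incubated with compound 60 min at room temperature, then FM-GlcNAc (100 µM final) added in citrate/phosphate buffer pH 7.2 with 0.005% Tween-20. After 6 h at room temperature, stopped with carbonate pH 11.0; fluorescein read at 485/538 nm; IC50 and Hill coefficient from curve fit.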

OGA = target: T2, OGA (Homo sapiens, UniProt O60502); experiment: OGA cellular assay (ICC detection of O-GlcNAcylated proteins in HEK293 cells inducible for P301L mutant human Tau); format: cell-based; settings: for Emax: HEK293, HEK293 cells inducible for P301L mutant human Tau; for EC50: read-out: Cellular hOGA, pEC50 (converted)
T2 construct: endogenous in cells; host or cells: HEK293 cells inducible for P301L mutant human Tau (2N4R)
T2 sequence (O60502 1-916): T1 sequence (O60502 1-916)
Method in brief: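 HEK293 cells inducible for P301L Tau, in low-glucose assay medium, treated 6 h with compound at 0.2% DMSO. O-GlcNAcylated proteins detected by CTD110.6 immunostaining, imaged at 488 nm with Hoechst nuclear counts for toxicity. IC50 from non-linear regression, 200 uM Thiamet G as maximum.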

[2] = maximal effect, Thiamet G 200 uM as maximum
[3] = HEK293 cells inducible for P301L mutant human Tau, 6 hours incubation

Compound	Emax ([1]; maximal effect) [%]	IC50 [1] [nM]	Emax (OGA; [2]) [%]	EC50 (OGA; [3]) [nM]	Enzymatic hOGA; pIC50 [1]	Enzymatic Emax (%) ([1]; maximal effect)	Cellular hOGA; pEC50 (OGA; [3])	Cellular Emax (%) (OGA; HEK293 cells inducible for P301L mutant human Tau, maximal effect, Thiamet G 200 uM as maximum)
Cc1cc(NCC2CCCN(C(C)c3ccc4c(c3)OCC4)C2)cc(C)n1 (stereo not drawn) [Product 22]	104	7.94	82	7.94				
COc1cc(NCC2CCCN(C(C)c3ccc4c(n3)OCCO4)C2)cc(C)n1 (stereo not drawn) [Product 23]	100	10	81	7.94				
COc1cc(NCC2CCCN(C(C)c3ccc4c(c3)OCC4)C2)cc(C)n1 (stereo not drawn) [Product 30]	104	7.94	81	6.31				
Cc1cc(NCC2CCCN(C(C)c3ccc4c(c3)OCC4)C2)cc(C(F)(F)F)n1 (stereo not drawn) [Product 36]	101		88	126				
Cc1cc(C[C@H]2CCCN(Cc3ccc4c(n3)OCCO4)C2)cc(C)n1 [Product 43]	101	63.1	60	501				
Cc1cc(C[C@H]2CCCN(Cc3ccc4c(c3)OCCN4C)C2)cc(C)n1 [Product 48]	93	501	5	> 1000				
COc1cc(C[C@H]2CCCN([C@H](C)c3ccc4c(n3)OCCO4)C2)cc(C)n1 [Product 64]	101	3.98	97	15.8				
Cc1cc(NCC2CCCN(C(C)c3cc4c(cc3F)OCCO4)C2)cc(C(F)(F)F)n1 (stereo not drawn) [Product 99]	105	5.25	65	25.1				
Cc1cc(C[C@H]2CCCN(C(C)c3cnc4c(c3)OCCO4)C2)cc(C)n1 (stereo partly drawn) [Product 130]	101	7.94	83	158				
Cc1cnc(OC2CCCN(C(C)c3ccc4c(n3)OCCO4)C2)c(C)n1 (stereo not drawn) [Product 133]	103	15.8	62	501				
Cc1cc(OC2CCCN(C(C)c3ccc4c(n3)OCCO4)C2)cc(C)n1 (stereo not drawn) [Product 136]	101	3.98	60	631				
Cc1cc(C2CCCN(C(C)c3cnc4c(c3)OCCN4)C2)cc(C)n1 (stereo not drawn) [Product 137]	101	20	83	50.1				
Cc1cc(OC2CCCN(C(C)c3ccc4c(n3)OCCO4)C2)cc(C(F)(F)F)n1 (stereo not drawn) [Product 138]	101	126	16	> 1000				
Cc1cc(OC[C@@H]2CCCN(C(C)c3cnc4c(c3)OCCN4)C2)cc(C)n1 (stereo partly drawn) [Product 145]	99	251	35	> 1000				
Cc1cc(OC[C@H]2CCCN(C(C)c3cnc4c(c3)OCCN4)C2)cc(C)n1 (stereo partly drawn) [Product 146]	99	6.31	79	10				
Cc1cc(OC[C@H]2CCCN(C(C)c3cnc4c(c3)OCCN4)C2)cc(C)n1 (stereo partly drawn) [Product 147]					8.2	100	8.0	80
Cc1cc(C2CCCN(C(C)c3nc4c(cc3F)CCO4)C2)cc(C)n1 (stereo not drawn) [Product 148]	98	15.8	78	10				
Cc1cc(C2CCCN(C(C)c3nc4c(cc3F)OCCO4)C2)cc(C)n1 (stereo not drawn) [Product 151]	102	6.31	85	6.92				
Cc1cc(OC[C@H]2CCCN(C(C)c3nc4c(cc3F)OCCO4)C2)cc(C)n1 (stereo partly drawn) [Product 152]	102	3.98	94	3.98				
Cc1cc(OC[C@H]2CCCN([C@@H](C)c3nc4c(cc3F)OCCO4)C2)cc(C)n1 [Product 153]	102	1.58	94	2.51				

Compound	Emax ([1]; maximal effect) [%]	IC50 [1] [nM]	Emax (OGA; [2]) [%]	EC50 (OGA; [3]) [nM]	Enzymatic hOGA; pIC50 [1]	Enzymatic Emax (%) ([1]; maximal effect)	Cellular hOGA; pEC50 (OGA; [3])	Cellular Emax (%) (OGA; HEK293 cells inducible for P301L mutant human Tau, maximal effect, Thiamet G 200 uM as maximum)
Cc1cc(OC[C@H]2CCCN([C@H](C)c3nc4c(cc3F)OCCO4)C2)cc(C)n1 [Product 154]	101	50.1	86	126				
Cc1cc(NC[C@H]2CCCN(C(C)c3ccc4c(n3)OCCO4)C2)nc(C)n1 (stereo partly drawn) [Product 157]	101	5.01	83	15.8				
Cc1cc(CO[C@H]2CCCN(C(C)c3nc4c(cc3F)OCCO4)C2)cc(C)n1 (stereo partly drawn) [Product 168]	99	3.16	69	31.6				
COC1CCN(C(C)c2ccc3c(n2)OCCO3)CC1Cc1cc(C)nc(C)c1 (stereo not drawn) [Product 172]	99	39.8	78	126				
Cc1cc(CC2CN(C(C)c3ccc4c(n3)OCCO4)CCC2O)cc(C)n1 (stereo not drawn) [Product 173]	99	63.1	64	631				
Cc1cc(NC[C@H]2CCCN(C(C)c3nc4c(cc3F)OCCO4)C2)cc(C)n1 (stereo partly drawn) [Product 181]	101	3.98	92	1.58				
COc1cc(NC[C@H]2CCCN(C(C)c3nc4c(cc3F)OCCO4)C2)cc(C)n1 (stereo partly drawn) [Product 182]	99	3.98	106	1.58				
Cc1cc(C2CCCN(C(C)c3ccc4c(n3)OCCO4)C2)c(F)c(C)n1 (stereo not drawn) [Product 185]	100	15.8	65	50.1				
Cc1cc(C2CCCN(C(C)c3nc4c(cc3F)OCCO4)C2)cc(C(F)F)n1 (stereo not drawn) [Product 187]	96	7.94	92	12.6				
Cc1cc(C2CCCN(C(C)c3ccc4c(n3)OCCO4)C2)cc(C(F)F)n1 (stereo not drawn) [Product 188]	102	10	79	100				
Cc1cc(C2CCCN(C(C)c3nc4c(cc3F)OCCO4)C2)c(F)c(C)n1 (stereo not drawn) [Product 189]	100	7.94	88	15.8				
Cc1cc(C2CCCN(C(C)c3cc4c(cc3F)NCCO4)C2)cc(C)n1 (stereo not drawn) [Product 190]	101	10	82	50.1				
Cc1cc(OC[C@H]2CCCN(C(C)c3cc4c(cc3F)NCCO4)C2)cc(C)n1 (stereo partly drawn) [Product 191]	95	5.01	81	15.8				
COc1cc(N[C@H]2CCCN(C(C)c3ccc4c(n3)OCCO4)C2)cc(C)n1 (stereo partly drawn) [Product 192]	99	6.31	91	20				
Cc1cc(CN[C@H]2CCCN(C(C)c3nc4c(cc3F)OCCO4)C2)cc(C)n1 (stereo partly drawn) [Product 193]	99	3.16	95	31.6				
Cc1cc(CN[C@H]2CCCN(C(C)c3ccc4c(n3)OCCO4)C2)cc(C)n1 (stereo partly drawn) [Product 194]	97	20	71	251				
CC(c1nc2c(cc1F)OCCO2)N1CCC[C@@H](CNc2ccc(F)cc2)C1 (stereo partly drawn) [Product 195]	100	15.8	112	79.4				
CC(c1nc2c(cc1F)OCCO2)N1CCC[C@H](NCc2ccc(F)cc2)C1 (stereo partly drawn) [Product 196]	95	39.8	70	251				
CC(c1ccc2c(n1)OCCO2)N1CCC[C@H](NCc2ccc(F)cc2)C1 (stereo partly drawn) [Product 197]	98	398	66	631				
COc1cc(CN[C@H]2CCCN(C(C)c3ccc4c(n3)OCCO4)C2)cc(C)n1 (stereo partly drawn) [Product 198]	94	39.8	82	398				
